For 27 compounds, IC50 results are on record in US20120157451A1, “RAF INHIBITOR COMPOUNDS AND METHODS OF USE THEREOF” (GENENTECH, INC, priority 2009, published 2012).

In the experiment the target is T1, V600E full-length B-Raf (Homo sapiens, UniProt P15056, V600E).
T1 construct: made in house; host or cells: Sf9 insect cells (baculovirus)
T1 sequence (P15056 whole entry V600E): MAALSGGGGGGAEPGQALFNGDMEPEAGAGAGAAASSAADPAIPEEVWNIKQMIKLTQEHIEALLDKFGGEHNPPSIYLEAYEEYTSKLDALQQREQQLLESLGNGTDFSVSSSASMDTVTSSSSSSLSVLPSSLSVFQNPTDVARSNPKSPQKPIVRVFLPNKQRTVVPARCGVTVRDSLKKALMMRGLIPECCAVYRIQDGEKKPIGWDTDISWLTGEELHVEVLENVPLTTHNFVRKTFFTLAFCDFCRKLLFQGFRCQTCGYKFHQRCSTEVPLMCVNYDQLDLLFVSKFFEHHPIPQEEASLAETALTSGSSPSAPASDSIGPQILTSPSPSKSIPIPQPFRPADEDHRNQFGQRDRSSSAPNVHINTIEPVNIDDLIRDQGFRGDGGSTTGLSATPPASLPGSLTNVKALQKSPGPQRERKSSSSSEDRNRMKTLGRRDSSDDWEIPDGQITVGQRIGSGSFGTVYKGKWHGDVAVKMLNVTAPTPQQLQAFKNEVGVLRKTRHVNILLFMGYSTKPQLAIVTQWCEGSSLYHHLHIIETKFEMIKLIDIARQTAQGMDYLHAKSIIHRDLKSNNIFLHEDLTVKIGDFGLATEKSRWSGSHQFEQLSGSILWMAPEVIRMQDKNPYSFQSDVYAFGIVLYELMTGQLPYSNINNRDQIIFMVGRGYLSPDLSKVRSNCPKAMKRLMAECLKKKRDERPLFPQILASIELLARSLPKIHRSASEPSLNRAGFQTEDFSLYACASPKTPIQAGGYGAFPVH
Description: B-Raf IC50 assay (incorporation of radiolabeled phosphate from [γ-33P]ATP into FSBA-modified wild-type MEK). Format: biochemical. The conditions noted are these: bound stated. The source says:
Determining the activity of Raf in the sample is possible by a number of direct and indirect detection methods (US 2004/0082014). Activity of human recombinant B-Raf protein may be assessed in vitro by assay of the incorporation of radio labeled phosphate to recombinant MAP kinase (MEK), a known physiologic substrate of B-Raf, according to US 2004/0127496 and WO 03/022840.
Activity of human recombinant B-Raf protein may be assessed in vitro by assay of the incorporation of radio labeled phosphate to recombinant MAP kinase (MEK), a known physiologic substrate of B-Raf, according to US 2004/0127496 and WO 03/022840. Catalytically active human recombinant B-Raf protein is obtained by purification from sf9 insect cells infected with a human B-Raf recombinant baculovirus expression vector.
Incubations were carried out at 22° C. in a Costar 3365 plate (Corning). Prior to the assay, the B-Raf and FSBA-MEK were preincubated together in assay buffer at 1.5× (20 μL of 30 nM and 1.5 μM, respectively) for 15 minutes, and the assay was initiated by the addition of 10 μL of 10 μM ATP. Following the 60-minute incubation, the assay mixtures were quenched by the addition of 100 μL of 25% TCA, the plate was mixed on a rotary shaker for 1 minute, and the product was captured on a Perkin-Elmer GF/B filter plate using a Tomtec Mach III Harvester. After sealing the bottom of the plate, […] of Bio-Safe II (Research Products International) scintillation cocktail were added to each well and the plate was top-sealed and counted in a Topcount NXT (Packard).
The compound `CCCS(=O)(=O)Nc1ccc(F)c(C(=O)Nc2cnc3cc(C)nn3c2)c1F` [Example 26, 2,6-difluoro-N-(2-methylpyrazolo [1,5-a]pyrimidin-6-yl)-3-(propylsulfonamido) benzamide] registered an IC50 of less than 150 nM.

Take `CCCS(=O)(=O)Nc1ccc(F)c(C(=O)Nc2cnc3cc(-c4ccc(Cl)cc4)nn3c2)c1F` [Example 6, N-(2-(4-chlorophenyl)pyrazolo[1,5-a]pyrimidin-6-yl)-2,6-difluoro-3-(propylsulfonamido)benzamide]: the IC50 was less than 150 nM.

`CCCS(=O)(=O)Nc1ccc(F)c(C(=O)Nc2cnc3cc(CC)nn3c2)c1F` [Example 29, N-(2-ethylpyrazolo[1,5-a]pyrimidin-6-yl)-2,6-difluoro-3-(propylsulfonamido) benzamide] came in with an IC50 of less than 150 nM.

The compound `CCCS(=O)(=O)Nc1ccc(F)c(C(=O)Nc2cnc3cc(C4CCCC4)nn3c2)c1F` [Example 30, N-(2-cyclopentylpyrazolo [1,5-a]pyrimidin-6-yl)-2,6-difluoro-3-(propylsulfonamido) benzamide] displayed an IC50 of less than 150 nM.

As for `CCCS(=O)(=O)Nc1ccc(F)c(C(=O)Nc2cnc3cc(NC)nn3c2)c1F` [Example 35, 2,6-difluoro-N-(2-(methylamino)pyrazolo[1,5-a]pyrimidin-6-yl)-3-(propylsulfonamido) benzamide], the IC50 is less than 150 nM.

Consider `CCCS(=O)(=O)Nc1ccc(F)c(C(=O)Nc2cnc3cc(NC(C)C)nn3c2)c1F` [Example 18, 2,6-difluoro-N-(2-(isopropylamino)pyrazolo[1,5-a]pyrimidin-6-yl)-3-(propylsulfonamido)benzamide], for which the IC50 was less than 300 nM.

On to `CCCS(=O)(=O)Nc1ccc(F)c(C(=O)Nc2cnc3cc(OC)nn3c2)c1Cl` [Example 20, 2-chloro-6-fluoro-N-(2-methoxypyrazolo [1,5-a]pyrimidin-6-yl)-3-(propylsulfonamido) benzamide], for which the IC50 was less than 150 nM.

Consider `CCCS(=O)(=O)Nc1ccc(F)c(C(=O)Nc2cnc3cc(-c4cnn(C)c4)nn3c2)c1F` [Example 12, 2,6-difluoro-N-(2-(1-methyl-1H-pyrazol-4-yl)pyrazolo[1,5-a]pyrimidin-6-yl)-3-(propylsulfonamido)benzamide], for which the IC50 is less than 150 nM.

The compound `CCCS(=O)(=O)Nc1ccc(F)c(C(=O)Nc2cnc3cc(C4CCOC4)nn3c2)c1F` (stereo not drawn) [Example 31, 2,6-difluoro-3-(propylsulfonamido)-N-(2-(tetrahydrofuran-3-yl)pyrazolo[1,5-a]pyrimidin-6-yl)benzamide] displayed an IC50 of less than 300 nM.

`CCCS(=O)(=O)Nc1ccc(Cl)c(C(=O)Nc2cnc3cc(OC)nn3c2)c1F` [Example 19, 6-chloro-2-fluoro-N-(2-methoxypyrazolo [1,5-a]pyrimidin-6-yl)-3-(propylsulfonamido) benzamide] registered an IC50 of less than 150 nM.

In turn, `CCCS(=O)(=O)Nc1ccc(F)c(C(=O)Nc2cnc3cc(C4CC4)nn3c2)c1F` [Example 28, N-(2-cyclopropylpyrazolo [1,5-a]pyrimidin-6-yl)-2,6-difluoro-3-(propylsulfonamido) benzamide] registered a half-inhibitory concentration (IC50) of less than 150 nM.

In the case of `CCCS(=O)(=O)Nc1ccc(F)c(C(=O)Nc2cnc3cc(-c4ccc(C)cc4)nn3c2)c1F` [Example 8, 2,6-difluoro-3-(propylsulfonamido)-N-(2-p-tolylpyrazolo[1,5-a]pyrimidin-6-yl)benzamide], the IC50 was less than 150 nM.

Take `CCCS(=O)(=O)Nc1ccc(F)c(C(=O)Nc2cnc3cc(OCC)nn3c2)c1F` [Example 3, N-(2-ethoxypyrazolo[1,5-a]pyrimidin-6-yl)-2,6-difluoro-3-(propylsulfonamido)benzamide]: the IC50 is less than 150 nM.

On to `CCCS(=O)(=O)Nc1ccc(F)c(C(=O)Nc2cnc3cc(-c4ccc(F)cc4)nn3c2)c1F` [Example 7, 2,6-difluoro-N-(2-(4-fluorophenyl)pyrazolo[1,5-a]pyrimidin-6-yl)-3-(propylsulfonamido)benzamide], for which the IC50 was less than 150 nM.

Compound `CCCS(=O)(=O)Nc1ccc(F)c(C(=O)Nc2cnc3cc(N4CCOCC4)nn3c2)c1F` [Example 36, 2,6-difluoro-N-(2-morpholinopyrazolo [1,5-a]pyrimidin-6-yl)-3-(propylsulfonamido) benzamide] showed an IC50 of less than 300 nM.

In the case of `CCCS(=O)(=O)Nc1ccc(F)c(C(=O)Nc2cnc3cc(C(F)(F)F)nn3c2)c1F` [Example 32, 2,6-difluoro-3-(propylsulfonamido)-N-(2-(trifluoromethyl)pyrazolo[1,5-a]pyrimidin-6-yl)benzamide], the IC50 is less than 150 nM.

Compound `CCCS(=O)(=O)Nc1ccc(Cl)c(C(=O)Nc2cnc3cc(-c4ccccc4)nn3c2)c1F` [Example 33, 6-chloro-2-fluoro-N-(2-phenylpyrazolo [1,5-a]pyrimidin-6-yl)-3-(propylsulfonamido) benzamide] yielded an IC50 of less than 150 nM.

Take `CCCS(=O)(=O)Nc1ccc(F)c(C(=O)Nc2cnc3ccnn3c2)c1F` [Example 27, 2,6-difluoro-3-(propylsulfonamido)-N-(pyrazolo[1,5-a]pyrimidin-6-yl)benzamide]: the IC50 is less than 300 nM.

`COc1cc2ncc(NC(=O)c3c(F)ccc(NS(=O)(=O)CCCF)c3F)cn2n1` [Example 21, 2,6-difluoro-3-(3-fluoropropyl-sulfonamido)-N-(2-methoxypyrazolo [1,5-a]pyrimidin-6-yl)benzamide]: the IC50 is less than 150 nM.

For `CCCS(=O)(=O)Nc1ccc(F)c(C(=O)Nc2cnc3cc(-c4cnn(CCO)c4)nn3c2)c1F` [Example 13, 2,6-difluoro-N-(2-(1-(2-hydroxyethyl)-1H-pyrazol-4-yl)pyrazolo[1,5-a]pyrimidin-6-yl)-3-(propylsulfonamido)benzamide], the IC50 is less than 150 nM.

In turn, `CCCS(=O)(=O)Nc1ccc(F)c(C(=O)Nc2cnc3cc(OCCOC)nn3c2)c1F` [Example 16, 2,6-difluoro-N-(2-(2-methoxyethoxy)pyrazolo[1,5-a]pyrimidin-6-yl)-3-(propylsulfonamido)benzamide] returned an IC50 of less than 150 nM.

Consider `CCCS(=O)(=O)Nc1ccc(F)c(C(=O)Nc2cnc3cc(SC)nn3c2)c1F` [Example 14, 2,6-difluoro-N-(2-(methylthio)pyrazolo[1,5-a]pyrimidin-6-yl)-3-(propylsulfonamido)benzamide], for which the IC50 was less than 150 nM.

For the compound `COc1cc2ncc(NC(=O)c3c(F)ccc(NS(=O)(=O)CC(C)C)c3F)cn2n1` [Example 25, 2,6-difluoro-N-(2-methoxypyrazolo [1,5-a]pyrimidin-6-yl)-3-(2-methylpropyl-sulfonamido) benzamide], the half-inhibitory concentration (IC50) is less than 150 nM.

In the case of `CCCS(=O)(=O)Nc1ccc(F)c(C(=O)Nc2cnc3cc(OC(C)C)nn3c2)c1F` [Example 2, 2,6-difluoro-N-(2-isopropoxypyrazolo[1,5-a]pyrimidin-6-yl)-3-(propylsulfonamido)benzamide], the IC50 is less than 150 nM.

For the compound `CCCS(=O)(=O)Nc1ccc(F)c(C(=O)Nc2cnc3cc(OCCO)nn3c2)c1F` [Example 15, 2,6-difluoro-N-(2-(2-hydroxyethoxy)pyrazolo[1,5-a]pyrimidin-6-yl)-3-(propylsulfonamido)benzamide], the IC50 was less than 150 nM.

In the case of `CCCS(=O)(=O)Nc1ccc(F)c(C(=O)Nc2cnc3cc(-c4cccc(F)c4)nn3c2)c1F` [Example 9, 2,6-difluoro-N-(2-(3-fluorophenyl)pyrazolo[1,5-a]pyrimidin-6-yl)-3-(propylsulfonamido)benzamide], the IC50 was less than 150 nM.

On to `CCCS(=O)(=O)Nc1ccc(F)c(C(=O)Nc2cnc3cc(C4CCNCC4)nn3c2)c1F` [Example 4, 2,6-difluoro-N-(2-(piperidin-4-yl)pyrazolo[1,5-a]pyrimidin-6-yl)-3-(propylsulfonamido)benzamide], for which the IC50 was less than 300 nM.

As usually defined, the IC50 is the concentration that inhibits the measured activity by half.
